Results: paper PMC4864329, “In vitro and in vivo efficacy, toxicity, bio-distribution and resistance selection of a novel antibacterial drug candidate” (Scientific Reports, 2016)
“And” between values parts separate entries of the source, which are not always exact repeats. Equal entries are not always repeated.

Tests used:
[1] = tested on: Pseudomonas aeruginosa clinical isolates; experiment: MIC by standard microdilution, clinical isolates of Pseudomonas aeruginosa; assay type: cell-based
Procedure: Minimum inhibitory concentrations (MICs) of SET-M33L were determined against 76 clinical isolates of Pseudomonas aeruginosa and 73 clinical isolates of Klebsiella pneumoniae. The isolates were selected on the basis of their resistance phenotypes and major antibiotic resistance determinants, including resistance to colistin and carriage of carbapenemase-encoding genes (Table 1 and supplemental Tables S1 and S2).
MIC values were determined against a large collection of clinical isolates. Most isolates were collected during routine susceptibility testing procedures at the Clinical Microbiology Unit of Careggi University Hospital in Florence, while specific isolates were selected according to their phenotype or genotype (e.g. carriage of carbapenemase-encoding genes, inclusion in epidemic bacterial clones, resistance to colistin) from a collection of isolates already available at Department of Medical Biotechnologies, University of Siena. Detailed features of each strain, including relevant resistance phenotypes and genotypes were reported in supplemental Tables S1 and S2. MICs were determined in triplicate using a standard microdilution assay according to the guidelines of the Clinical and Laboratory Standards Institute[34]. SET-M33L was assayed using concentrations in the range 0.09–11.2 μM (0.5–64 μg/mL); testing was performed using a bacterial inoculum of 5 × 10^4 CFU/well prepared in cation-supplemented Mueller-Hinton broth (MHB) (Becton Dickinson, Franklin Lakes, NJ, USA) in a final volume of 100 μl. Results were recorded after 18–20 h of incubation at 35 °C.

[2] = tested on: K. pneumoniae strain KKBO-1; assay type: cell-based, Klebsiella pneumoniae; conditions: K. pneumoniae KKBO-1
Procedure: Tests were performed by plating cells on SET-M33L- or colistin-containing MHB.

Measured: MIC

colistin sulfate
1 µg/mL: [1]; isolate SI_P18, phenotype none | [1]; isolate SI_P21, FQ, AG
≤ 0.5 µg/mL: [1]; isolate SI_P1, phenotype none | [1]; isolate SI_P4, CARB, β/I, ESC, FQ, AG | [1]; isolate SI_P5, CARB, ESC, β/I, FQ, AG | [1]; isolate SI_P7, CARB, β/I, ESC, FQ, AG | [1]; isolate SI_P8, CARB, ESC, AG | [1]; isolate SI_P9, CARB, β/I, ESC, FQ, AG | [1]; isolate SI_P10, CARB, β/I, ESC, FQ, AG | [1]; isolate SI_P15, CARB, β/I, ESC, FQ, AG | [1]; isolate SI_P17, CARB, β/I, ESC, FQ, AG, blaVIM | [1]; isolate SI_P20, phenotype none | [1]; isolate SI_P22, phenotype none | [1]; isolate SI_P23, phenotype none | [1]; isolate SI_P24, phenotype none | [1]; isolate SI_P25, AG | [1]; isolate SI_P26, phenotype none | [1]; isolate SI_P27, CARB | [1]; isolate SI_P28, phenotype none | [1]; isolate SI_P29, phenotype none | [1]; isolate SI_P30, phenotype none | [1]; isolate SI_P31, phenotype none | [1]; isolate SI_P32, phenotype none | [1]; isolate SI_P33, CARB, β/I, ESC, FQ | [1]; isolate SI_P34, CARB, β/I | [1]; isolate SI_P36, CARB, AG | [1]; isolate SI_P37, CARB, β/I, ESC, FQ, AG | [1]; isolate SI_P38, CARB, β/I, ESC, FQ, AG, blaVIM
2 µg/mL: [1]; isolate SI_P2, CARB, β/I, ESC, FQ, AG, blaVIM | [1]; isolate SI_P3, phenotype none | [1]; isolate SI_P6, phenotype none | [1]; isolate SI_P11, CARB, β/I, ESC, FQ, AG | [1]; isolate SI_P12, CARB, β/I, ESC, FQ | [1]; isolate SI_P13, phenotype none | [1]; isolate SI_P14, CARB | [1]; isolate SI_P16, CARB, β/I, ESC, FQ, AG | [1]; isolate SI_P19, phenotype none | [1]; isolate SI_P35, CARB, β/I, ESC, FQ
2 μg/mL and 1.5 μM: [1]; isolate SI_P60, CARB, β/I, ESC, FQ, AG, blaVIM | [1]; isolate SI_P62, CARB, β/I, ESC, FQ, AG, blaVIM | [1]; isolate SI_P65, CARB, β/I, ESC, FQ, AG | [1]; isolate SI_P69, CARB | [1]; isolate SI_P72, FQ, AG | [1]; isolate SI_P75, CARB, β/I, ESC, FQ, AG, blaIMP
1 μg/mL and 0.7 μM: [1]; isolate SI_P76, CARB, β/I, ESC, FQ, AG, blaIMP
≤ 0.4 μM and ≤ 0.5 μg/mL: [1]; isolate SI_P43, FQ
≤ 0.5 μg/mL and ≤ 0.4 μM: [1]; isolate SI_P39, CARB, β/I, ESC, FQ, AG, blaVIM | [1]; isolate SI_P40, phenotype none | [1]; isolate SI_P41, CARB, β/I, ESC, FQ, AG | [1]; isolate SI_P42, phenotype none | [1]; isolate SI_P44, CARB, ESC, FQ, AG | [1]; isolate SI_P45, phenotype none | [1]; isolate SI_P46, phenotype none | [1]; isolate SI_P47, phenotype none | [1]; isolate SI_P48, phenotype none | [1]; isolate SI_P49, CARB, β/I, ESC, FQ, AG | [1]; isolate SI_P50, phenotype none | [1]; isolate SI_P51, CARB, β/I, ESC, FQ, AG | [1]; isolate SI_P52, CARB, AG | [1]; isolate SI_P53, CARB, β/I, ESC, FQ | [1]; isolate SI_P54, CARB, β/I, FQ, AG | [1]; isolate SI_P55, phenotype none | [1]; isolate SI_P56, CARB | [1]; isolate SI_P57, β/I | [1]; isolate SI_P58, FQ, AG | [1]; isolate SI_P59, β/I, ESC | [1]; isolate SI_P61, CARB, β/I, ESC, FQ, AG, blaVIM | [1]; isolate SI_P63, CARB, β/I, ESC, FQ, AG, blaVIM | [1]; isolate SI_P64, CARB, β/I, ESC, FQ, AG | [1]; isolate SI_P66, CARB, FQ | [1]; isolate SI_P67, CARB, β/I, ESC, FQ, AG, blaVIM | [1]; isolate SI_P68, phenotype none | [1]; isolate SI_P70, CARB | [1]; isolate SI_P71, phenotype none | [1]; isolate SI_P73, β/I | [1]; isolate SI_P74, phenotype none
0.15 µM: [2]
